Experimental data published in the supplement of paper PMC10307832.

Experiments:
Assay in all cases: relative viability (nuclei count vs DMSO), 5 days (fraction); higher = more cells survive
[1] = compound: C#Cc1cccc(Nc2ncnc3cc(OC)c(OCCCCCCC(=O)NO)cc23)c1 [CUDC-101] + Nc1ncn([C@H]2C[C@H](O)[C@@H](CO)O2)c(=O)n1 [Decitabine] (partner 2 µM)
In short: (§1)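 After 5 days of treatment, lung cancer cells in 1536-well plates were fixed and stained in a single step (final 0.05% Triton X-100, 1% formaldehyde, 1 ug/ml Hoechst) and their nuclei counted on 4× images. Treatment had been applied by pin tool the day after seeding as one drug alone or as a fixed anchor-drug dose with five library-drug doses (not always all listed) in √10 steps. Relative viability is the nuclei count of treated wells divided by that of vehicle wells, and values are medians of duplicate plates.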

[2] = compound: C1=CC=C2C(=C1)N=C(S2)C(C#N)C3=NC(=NC=C3)NCCC4=CN=CC=C4 + O=C(c1cc(Cc2n[nH]c(=O)c3ccccc23)ccc1F)N1CCN(C(=O)C2CC2)CC1 [Olaparib] (partner 8 µM)
In short: as §1

[3] = compound: COc1cc2/c(=N/c3ccc(Br)cc3F)nc[nH]c2cc1OCC1CCN(C)CC1 [Vandetanib] + COc1cccc2cc(-c3nc([C@H]4CC[C@H](C(=O)O)CC4)n4ncnc(N)c34)[nH]c12 [OSI-027] (partner 0.5 µM)
In short: as §1

[4] = compound: C1=CC=C2C(=C1)N=C(S2)C(C#N)C3=NC(=NC=C3)NCCC4=CN=CC=C4 + CS(=O)(=O)CCNCc1ccc(-c2ccc3ncnc(Nc4ccc(OCc5cccc(F)c5)c(Cl)c4)c3c2)o1 [Lapatinib] (partner 2 µM)
In short: as §1

| Cell Line | relative viability ([1]; first compound 0.01 µM) | relative viability ([1]; first compound 0.03162 µM) | relative viability ([1]; first compound 0.1 µM) | relative viability ([1]; first compound 0.3162 µM) | relative viability ([1]; first compound 1 µM) | relative viability ([2]; first compound 0.005 µM) | relative viability ([2]; first compound 0.01581 µM) | relative viability ([2]; first compound 0.05 µM) | relative viability ([2]; first compound 0.1581 µM) | relative viability ([2]; first compound 0.5 µM) | relative viability ([3]; first compound 0.02 µM) | relative viability ([3]; first compound 0.06325 µM) | relative viability ([3]; first compound 0.2 µM) | relative viability ([3]; first compound 2 µM) | relative viability ([4]; first compound 0.005 µM) | relative viability ([4]; first compound 0.01581 µM) | relative viability ([4]; first compound 0.05 µM) | relative viability ([4]; first compound 0.1581 µM) | relative viability ([4]; first compound 0.5 µM) | relative viability ([3]; first compound 0.6325 µM) |
| --- | --- | --- | --- | --- | --- | --- | --- | --- | --- | --- | --- | --- | --- | --- | --- | --- | --- | --- | --- | --- |
| 201T | 0.835 | 0.863 | 0.844 | 0.842 | 0.828 | 0.829 | 0.837 | 0.802 | 0.905 | 0.706 | 0.69 | 0.664 | 0.719 | 0.672 | 0.981 | 0.958 | 1.01 | 1.09 | 1.02 |  |
| A549 | 0.297 | 0.277 | 0.218 | 0.286 | 0.276 | 0.488 | 0.236 | 0.321 | 0.409 | 0.232 |  |  |  |  | 1.04 | 0.97 | 1.04 | 1.07 | 0.942 |  |
| A-427 | 0.617 | 0.619 | 0.591 | 0.568 | 0.554 | 0.699 | 0.694 | 0.698 | 0.856 | 0.718 | 0.542 | 0.486 | 0.53 | 0.432 | 0.78 | 0.889 | 1.01 | 1.12 | 1.08 | 0.481 |
| ABC-1 | 0.989 | 0.92 | 0.992 | 0.985 | 1.03 | 0.731 |  | 0.803 | 0.825 | 0.936 | 0.43 | 0.464 | 0.488 | 0.254 | 1.08 | 1.26 | 1.21 | 1.02 | 1.21 | 0.479 |
| BEN | 0.724 | 0.656 | 0.709 | 0.649 | 0.498 | 0.976 | 1.21 | 1.03 | 1.05 | 0.853 | 0.247 | 0.302 | 0.292 | 0.282 | 0.561 | 0.689 | 0.62 | 0.792 | 0.826 | 0.285 |
| CAL-12T |  |  |  |  |  | 0.712 | 0.658 | 0.739 | 0.866 | 0.648 | 0.701 | 0.655 | 0.541 | 0.291 | 0.782 |  |  | 0.675 | 0.674 | 0.626 |
| COR-L23 | 0.432 | 0.383 | 0.332 | 0.376 | 0.164 | 0.318 | 0.327 | 0.355 | 0.373 | 0.306 | 0.731 | 0.671 | 0.736 | 0.789 | 0.629 | 1.15 | 1.01 | 1.29 | 0.71 | 0.684 |
| COR-L 105 | 0.67 | 0.752 | 0.622 | 0.723 | 0.351 | 0.544 | 0.602 | 0.602 | 0.578 | 0.551 | 0.629 | 0.641 | 0.507 | 0.329 | 0.362 | 0.336 | 0.342 | 0.372 | 0.369 | 0.411 |
| Calu-6 |  |  |  |  |  | 0.602 | 0.619 | 0.52 | 0.644 | 0.505 |  |  |  |  | 0.877 | 1.05 | 0.959 | 1.18 | 0.958 |  |
| ChaGo-K-1 | 0.558 | 0.47 | 0.555 | 0.505 | 0.492 | 0.372 | 0.425 | 0.408 | 0.421 | 0.402 | 0.532 | 0.54 | 0.515 | 0.591 |  |  |  |  |  | 0.602 |
| EBC-1 |  |  |  |  |  | 0.784 | 0.757 | 0.656 | 0.629 | 0.574 |  |  |  |  | 0.272 | 0.19 | 0.239 | 0.194 | 0.259 |  |
| EKVX | 0.322 | 0.446 | 0.33 | 0.323 | 0.299 | 1 | 0.865 | 0.797 | 0.689 | 0.673 | 0.741 | 0.693 | 0.723 | 0.563 | 0.237 | 0.185 | 0.201 | 0.211 | 0.195 | 0.67 |
| EMC-BAC-2 | 1.09 | 0.925 | 0.948 | 0.952 | 0.654 | 0.512 | 0.481 | 0.469 | 0.476 | 0.427 | 0.382 | 0.358 | 0.318 | 0.38 | 0.845 | 0.855 | 0.826 | 1.02 | 0.879 | 0.381 |
| EPLC-272H | 0.327 | 0.363 | 0.341 | 0.301 | 0.309 |  | 0.803 | 0.733 | 0.825 | 0.517 | 0.319 |  | 0.305 | 0.265 | 0.784 | 0.642 | 1.02 | 1.15 | 0.684 | 0.286 |
| H3255 | 0.643 | 0.549 |  | 0.227 | 0.15 | 0.55 | 0.594 | 0.603 | 0.575 | 0.534 | 0.655 | 0.459 | 0.455 | 0.227 | 0.225 | 0.227 | 0.234 | 0.261 | 0.251 | 0.417 |
| HARA | 0.446 | 0.515 |  | 0.464 | 0.254 | 0.773 | 0.659 | 0.942 | 0.822 | 0.954 | 0.542 | 0.299 | 0.466 | 0.483 | 0.692 | 0.862 | 0.643 | 1.01 | 0.676 | 0.525 |
| HCC-15 | 0.579 | 0.628 | 0.655 | 0.621 | 0.443 | 0.663 | 0.727 | 0.662 | 0.837 | 0.686 | 0.75 | 0.638 | 0.668 | 0.537 | 0.798 | 0.84 | 0.817 | 0.947 | 0.805 | 0.682 |
| HCC-44 | 0.908 | 1.03 | 0.912 | 0.906 | 0.913 | 0.994 | 1 | 0.987 | 1.01 | 0.968 | 0.434 | 0.49 | 0.574 | 0.427 | 0.848 | 1.02 | 1.01 | 1.16 | 0.823 | 0.439 |
